According to patent publication US5846720A, “Methods of determining chemicals that modulate expression of genes associated with cardiovascular disease” (Oncogene Science, Inc., priority 1996, dated 1998):
Like-named read-outs stand apart in the source and are kept apart here.

Key:
[1] = system: hGH promoter; assay: hGH promoter/luciferase reporter assay (high-throughput screen I), 532 cells; assay type: cell-based, rat; conditions: Table 2, 6 h incubation; for hGH fold induction relative to solvent control: transcriptional activators; for hGH fold inhibition relative to solvent control: transcriptional inhibitors
Text: 6. a GC rat pituitary cell line, transfected with the growth hormone reporter plasmid, designated 532, deposited under ATCC Accession No. CRL 10663.

[2] = system: MMTV promoter; assay: MMTV promoter/luciferase reporter assay (high-throughput screen I, control for specificity), M10 cells; assay type: cell-based, mouse; conditions: Table 2, 6 h incubation; for MMTV fold induction relative to solvent control: transcriptional activators, original high-throughput assay; for MMTV fold inhibition relative to solvent control: transcriptional inhibitors
Procedure: pMluci and pSV2Neo, an antibiotic resistance plasmid (84), were co-transfected into NIH/3T3 mouse fibroblast cells using the calcium phosphate precipitation method (85) with a commercially available kit (Pharmacia, Piscataway N.J.). Two days later, cells were transferred to media containing 0.4 mg/ml G418 and were grown for an additional 10-14 days. G418-resistant clones were isolated by standard methods. Once sufficient cell numbers were obtained, clones were analyzed based on several criteria: constitutive luciferase production, induction of luciferase expression by dexamethasone ([…], Sigma, St. Louis, Mo.), satisfactory attachment to microtiter plates used in the high-throughput screen (see section G) and acceptable standard deviation in multiple luciferase expression assays (see below for assay protocol). This analysis was carried out using the luciferase assay conditions described above. Of the clones which satisfied the above criteria for the high throughput screen, one clone, M10, was selected for use.

[3] = system: G-CSF promoter; assay: G-CSF promoter/luciferase reporter assay (high-throughput screen I), G21 cells; conditions: for GCSF fold induction relative to solvent control: transcriptional activators
[4] = transcriptional inhibitors, Table 2, 6 h incubation

| SMILES | hGH fold induction relative to solvent control [1] [fold] | MMTV fold induction relative to solvent control [2] [fold] | GCSF fold induction relative to solvent control ([3]; Table 2, 6 h incubation) [fold] | hGH fold inhibition relative to solvent control [1] [fold] | MMTV fold inhibition relative to solvent control [2] [fold] | GCSF fold inhibition relative to solvent control [3, 4] [fold] | GCSF fold inhibition relative to solvent control [3] |
| --- | --- | --- | --- | --- | --- | --- | --- |
| O=C(O)c1[nH]c(=O)[nH]c(=O)c1I [Chemical 633] | 0.86 | 2.46 | 1.02 | – | – | – | – |
| Nc1c(O)c(S(=O)(=O)O)c(O)c2c1C(=O)c1ccccc1C2=O [Chemical 640] | – | – | – | 5.00 | 0.59 | 0.64 | – |
| O=C(c1ccc(O)c(O)c1)c1c(O)cc(O)cc1O [Chemical 660] | – | – | – | 0.34 | 1.04 | 10.0 | – |
| CN(C)c1ccc(C(=C2C=CC(=[N+](C)C)C=C2)c2ccc([N+](C)(C)C)cc2)cc1 [Chemical 670] | 0.52 | 0.79 | > 3 | – | – | – | – |
| C1CCNCC1 [Chemical 759] | – | – | – | 5.88 | 0.95 | – | 0.64 |
| CC(=O)OCC(=O)[C@@]1(O)CC[C@H]2[C@@H]3CCC4=CC(=O)C=C[C@]4(C)[C@H]3[C@@H](O)C[C@@]21C [Chemical 765] | 1.30 | 2.66 | 0.96 | – | – | – | – |
| CCOc1ccc2nc3cc(N)ccc3c(N)c2c1 [Chemical 790] | 5.94 | 0.58 | 0.01 | – | – | – | – |
| O=C1OC2(c3cc(I)c(O)c(I)c3Oc3c2cc(I)c(O)c3I)c2c(Cl)c(Cl)c(Cl)c(Cl)c21 [Chemical 792] | 5.31 | 1.21 | 0.94 | – | – | – | – |
| NC(=O)c1ccccc1O [Chemical 798] | – | – | – | 0.90 | 0.68 | 4.76 | – |
| Clc1ccc(Sc2cc(Cl)c(Cl)cc2Cl)cc1 [Chemical 828] | 1.34 | 2.20 | 1.47 | – | – | – | – |
| N=c1ccc2nc3ccc(N)cc3sc-2c1 [Chemical 836] | 0.23 | 0.58 | 3.20 | – | – | – | – |
| CC1(C)O[C@@H]2C[C@H]3[C@@H]4CCC5=CC(=O)C=C[C@]5(C)[C@@]4(F)[C@@H](O)C[C@]3(C)[C@]2(C(=O)CO)O1 [Chemical 848] | 1.28 | 2.43 | 0.75 | – | – | – | – |
| CCCCCCCCCCCCCCCC(=O)OCC(COC(=O)CCCCCCCCCCCCCCC)OC(=O)CCCCCCCCCCCCCCC [Chemical 856] | 6.49 | 0.42 | 0.28 | – | – | – | – |
| Nc1ccc(C=CC(=O)O)cc1 [Chemical 1234] | 0.51 | 1.03 | 4.97 | – | – | – | – |
| Cc1c(C2(c3cc(Br)c(O)c(Br)c3C)OS(=O)(=O)c3ccccc32)cc(Br)c(O)c1Br [Chemical 1251] | 15.19 | 0.33 | 0.14 | – | – | – | – |
| Clc1cc(Cl)cc(Br)c1 [Chemical 1255] | 0.43 | 1.09 | 6.74 | – | – | – | – |
| Nc1c(Cl)ncnc1Cl [Chemical 1269] | 0.91 | 2.18 | 0.72 | – | – | – | – |
| Nc1ccc2c(c1)Cc1ccccc1-2 [Chemical 1316] | 1.39 | 2.33 | 0.74 | – | – | – | – |
| Nc1ccc2c(c1)C(=O)c1ccccc1-2 [Chemical 1318] | 0.85 | 2.41 | 1.13 | – | – | – | – |
| Nc1ccc(S(=O)(=O)O)c2cccc(O)c12 [Chemical 1337] | 15.87 | 0.23 | 0.07 | – | – | – | – |

| SMILES | hGH fold induction relative to solvent control [1] [fold] | MMTV fold induction relative to solvent control [2] [fold] | GCSF fold induction relative to solvent control ([3]; Table 2, 6 h incubation) [fold] | hGH fold inhibition relative to solvent control [1] [fold] | MMTV fold inhibition relative to solvent control [2] [fold] | GCSF fold inhibition relative to solvent control [3, 4] [fold] | GCSF fold inhibition relative to solvent control [3] |
| --- | --- | --- | --- | --- | --- | --- | --- |
| NCc1ccc(S(N)(=O)=O)cc1 [Chemical 1375] | 0.04 | 1.37 | 8.94 | – | – | – | – |
| Cc1ccc(N)c(S(=O)(=O)O)c1 [Chemical 1376] | 0.04 | 1.32 | 6.37 | – | – | – | – |
| Cc1ccc(C(=O)c2ccccc2N)cc1 [Chemical 1384] | 0.50 | 2.43 | 1.33 | – | – | – | – |
| Cc1cc(N)sn1 [Chemical 1397] | 0.57 | 1.13 | 3.63 | – | – | – | – |
| Nc1ccccc1SSc1ccccc1N [Chemical 1482] | 0.54 | 1.07 | 3.99 | – | – | – | – |
| Nc1ccc(SSc2ccc(N)cc2)cc1 [Chemical 1483] | 0.38 | 1.09 | 4.64 | – | – | – | – |
| Nc1nc(-c2ccccc2)cs1 [Chemical 1499] | 5.55 | 0.61 | 0.24 | – | – | – | – |
| Nc1nc2nc[nH]c2c(=S)[nH]1 [Chemical 1521] | 0.73 | 0.92 | 3.59 | – | – | – | – |
| Nc1nccs1 [Chemical 1550] | 5.44 | 0.87 | 0.04 | – | – | – | – |
| NC1=NCCS1 [Chemical 1552] | 7.26 | 0.52 | 1.23 | – | – | – | – |
| Nc1c(Cl)c(Cl)nc(C(=O)O)c1Cl [Chemical 1561] | 8.05 | 0.48 | 0.23 | – | – | – | – |
| Brc1ccc2c3c(cccc13)CC2 [Chemical 1573] | 0.34 | 4.30 | 1.49 | – | – | – | – |
| Nc1ncnc2c1nc(Br)n2[C@@H]1O[C@H](CO)[C@@H](O)[C@H]1O [Chemical 1583] | 0.12 | 0.88 | 5.82 | – | – | – | – |
| Cc1ccc(P(CCP(c2ccc(C)cc2)c2ccc(C)cc2)c2ccc(C)cc2)cc1 [Chemical 1591] | – | – | – | 5.55 | 0.96 | 0.56 | – |
| CC1(C)[C@@H](C(=O)OCC(F)(F)C(F)(F)C(F)(F)C(F)(F)C(F)(F)C(F)F)CC[C@@]1(C)C(=O)OCC(F)(F)C(F)(F)C(F)(F)C(F)(F)C(F)(F)C(F)F [Chemical 1592] | 0.74 | 1.34 | 3.20 | – | – | – | – |
| O=C(Nc1cccc(C2=NCCN2)c1)Nc1cccc(C2=NCCN2)c1 [Chemical 1598] | 5.32 | 1.27 | 0.72 | – | – | – | – |
| O=S(=O)(O)c1ccc(-c2nnc(-c3ccnc(-c4nnc(-c5ccc(S(=O)(=O)O)cc5)c(-c5ccc(S(=O)(=O)O)cc5)n4)c3)nc2-c2ccc(S(=O)(=O)O)cc2)cc1 [Chemical 1604] | – | – | – | 5.00 | 0.97 | 0.77 | – |
| CC1(C)[C@H]2CC[C@]1(C)[C@H](O)C2 [Chemical 1635] | – | – | – | 9.09 | 0.99 | 0.71 | – |
| C(=Cc1ccccn1)c1ccccn1 [Chemical 1640] | – | – | – | 5.00 | 0.59 | 0.79 | – |
| c1ccc(-c2nccnc2-c2ccccn2)nc1 [Chemical 1641] | – | – | – | 5.55 | 0.60 | 0.83 | – |
